For 7 compounds, Kd and GI50 results are on record in patent US20260109707A1, “HETEROBIFUNCTIONAL COMPOUNDS AND METHODS OF TREATING DISEASE” (Halda Therapeutics OpCo. Inc., priority 2022, published 2026).

For one experiment, the target named is T1, BRD4-BD1 (Homo sapiens, UniProt O60885).
T1 construct: made in house; host or cells: T7 phage grown in an E. coli host derived from the BL21 strain
The experiment is described as follows: bromoKdELECT assay for binding affinity to BRD4-BD1. To be noted: binding to BRD4-BD1, Table 4. As to the method:
Compounds were tested using a bromoKdELECT assay. T7 phage strains displaying bromodomains were grown in parallel in 24-well blocks in an E. coli host derived from the BL21 strain. E. coli were grown to log-phase and infected with T7 phage from a frozen stock (multiplicity of infection=0.4) and incubated with shaking at 32° C. until lysis (90-150 minutes). The lysates were centrifuged (5,000×g) and filtered (0.2 μm) to remove cell debris. Streptavidin-coated magnetic beads were treated with biotinylated small molecule or acetylated peptide ligands for 30 minutes at room temperature to generate affinity resins for bromodomain assays. The liganded beads were blocked with excess biotin and washed with blocking buffer (SeaBlock (Pierce), 1% BSA, 0.05% Tween 20, 1 mM DTT) to remove unbound ligand and to reduce nonspecific phage binding. Binding reactions were assembled by combining bromodomains, liganded affinity beads, and test compounds in 1× binding buffer (17% SeaBlock, 0.33×PBS, 0.04% Tween 20, 0.02% BSA, 0.004% Sodium azide, 7.4 mM DTT). Test compounds were prepared as 1000× stocks in 100% DMSO. Kds were determined using an 11-point 3-fold compound dilution series with one DMSO control point. All compounds for Kd measurements are distributed by acoustic transfer (non-contact dispensing) in 100% DMSO. The compounds were then diluted directly into the assays such that the final concentration of DMSO was 0.09%. All reactions performed in polypropylene 384-well plates. Each was a final volume of 0.02 ml. The assay plates were incubated at room temperature with shaking for 1 hour and the affinity beads were washed with wash buffer (1×PBS, 0.05% Tween 20). The beads were then resuspended in elution buffer (1×PBS, 0.05% Tween […] non-biotinylated affinity ligand) and incubated at room temperature with shaking for 30 minutes. The bromodomain concentration in the eluates was measured by qPCR.

Experiment [1] has as its system T-Rex 293 cell line SC3 cells having increased expression of androgen receptor protein due to exposure to doxycycline. The experiment is described as follows: Cellular growth inhibition assay, T-Rex 293 SC3 cells with doxycycline (CellTiter-Glo, 72 hours). Type of experiment: cell-based. As to conditions: 72 h, T-Rex 293 SC3 cells with increased androgen receptor expression due to doxycycline (10 ng/mL). The essentials:
(§1)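 Growth inhibition is measured in an inducible AR-expressing T-Rex 293 clone, SC3, cultured with or without 10 ng/mL doxycycline in hormone-depleted medium. Test compounds are applied for 72 hours. GI50 values derive from CellTiter-Glo 2.0 signal fitted by four-parameter regression.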

The test system of the next experiment is VCaP cells. The experiment is described as follows: Cellular growth inhibition assay for VCaP cells (CellTiter-Glo, 72 hours). Type of experiment: cell-based, human. To be noted: Homo sapiens, VCaP, 72 h. The method, boiled down:
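Luminescent viability signal after 72 h of compound exposure gave GI50 values by four-parameter nonlinear regression. Compounds were added in 0.5% DMSO to cells plated 24 h earlier at 5000/well in DMEM containing 10% FBS.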

Experiment [2] has as its system T-Rex 293 cell line SC3 cells lacking increased expression of androgen receptor protein. The experiment is described as follows: Cellular growth inhibition assay, T-Rex 293 SC3 cells without doxycycline (CellTiter-Glo, 72 hours). Type of experiment: cell-based. To be noted: 72 h, T-Rex 293 cell line SC3 cells not exposed to doxycycline (lacking increased androgen receptor expression). The method, boiled down: as §1

For the next experiment, the target named is T2, androgen receptor (Homo sapiens, UniProt P10275).
T2 sequence (P10275 1-920 T878A): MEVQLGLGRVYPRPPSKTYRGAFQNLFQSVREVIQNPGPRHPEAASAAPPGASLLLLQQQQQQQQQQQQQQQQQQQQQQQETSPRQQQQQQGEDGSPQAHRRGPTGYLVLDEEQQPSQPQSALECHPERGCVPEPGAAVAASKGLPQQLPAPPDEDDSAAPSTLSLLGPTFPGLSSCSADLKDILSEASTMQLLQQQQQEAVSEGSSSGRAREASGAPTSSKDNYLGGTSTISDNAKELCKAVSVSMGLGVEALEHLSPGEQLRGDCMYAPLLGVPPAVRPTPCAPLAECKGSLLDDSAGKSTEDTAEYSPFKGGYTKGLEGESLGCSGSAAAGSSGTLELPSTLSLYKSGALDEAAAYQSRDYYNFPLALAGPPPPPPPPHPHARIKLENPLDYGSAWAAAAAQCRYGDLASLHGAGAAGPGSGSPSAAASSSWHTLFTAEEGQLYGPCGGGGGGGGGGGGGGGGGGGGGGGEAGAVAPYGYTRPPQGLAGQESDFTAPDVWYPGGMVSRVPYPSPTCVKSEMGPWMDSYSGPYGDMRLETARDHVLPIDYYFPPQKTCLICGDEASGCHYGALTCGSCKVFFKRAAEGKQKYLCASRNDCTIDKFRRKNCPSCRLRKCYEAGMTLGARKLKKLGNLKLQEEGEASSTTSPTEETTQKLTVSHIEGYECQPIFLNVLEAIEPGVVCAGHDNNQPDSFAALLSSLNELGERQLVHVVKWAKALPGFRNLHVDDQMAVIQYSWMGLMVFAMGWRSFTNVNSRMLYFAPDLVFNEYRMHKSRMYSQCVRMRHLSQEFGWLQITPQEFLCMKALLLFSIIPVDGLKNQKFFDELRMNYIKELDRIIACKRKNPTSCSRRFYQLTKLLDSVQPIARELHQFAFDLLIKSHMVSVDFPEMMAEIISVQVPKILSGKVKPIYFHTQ
The experiment is described as follows: Assay for binding affinity to androgen receptor ([3H]methyltrienolone radioligand, cell cytosol). To be noted: binding to the androgen receptor, Table 3. As to the method: Fractions of cell cytosol ([…]) were incubated for 24 hr at 4° C. with 1 nM [^3H]methyltrienolone in the absence or presence of the test compound in a buffer containing 25 mM Hepes-Tris (pH 7.4), 1 mM EDTA, 10 mM Na2MoO4, 2 mM DTT, 5 μM triamcinolone acetonide, and 10% glycerol. Nonspecific binding was determined in the presence of […] testosterone. Following incubation, the samples were filtered rapidly under vacuum through glass fiber filters (GF/B, Packard) presoaked with 0.3% PEI and rinsed several times with ice-cold 50 mM Tris-HCl using a 96-sample cell harvester (Unifilter, Packard). The filters were dried then counted for radioactivity in a scintillation counter (Topcount, Packard) using a scintillation cocktail (Microscint 0, Packard). The results are expressed as a percent inhibition of the control radioligand specific binding. The standard reference compound is testosterone, which is tested in each experiment at several concentrations to obtain a competition curve from which its IC50 is calculated.

Experiment [3] concerns T-Rex 293 cell line SC cells lacking increased expression of progesterone receptor isoform B protein. The experiment is described as follows: Cellular growth inhibition assay, T-Rex 293 SC cells without doxycycline (CellTiter-Glo, 72 hours). It is filed as cell-based. To be noted: T-Rex 293 SC cells not exposed to doxycycline. How it is done: (§2) The following types of cells were prepared for this experiment: (i) a T-Rex 293 cell line having increased expression of progesterone receptor isoform B protein due to exposure to doxycycline and (ii) a T-Rex 293 cell line lacking increased expression of progesterone receptor isoform B protein. Ability of the test compounds to inhibit proliferation of the foregoing cell types was evaluated according to the procedures set forth below.
(§3) The doxycycline-inducible progesterone receptor isoform B protein expressing cell line was established using the following protocol: T-Rex 293 cells were purchased from Invitrogen (Cat #R71007) and transfected using Lipofectamine 2000 with the wild-type progesterone receptor B protein sequence cloned into the pcDNA4/TO vector. Transfected cells were selected using 400 μg/mL Zeocin (Invitrogen Cat #R25001). Following selection, single clones were raised and maintained in Dulbecco's Modified Eagle Medium (DMEM) supplemented with 10% w/w Tetracycline-free fetal bovine serum (FBS) and 250 μg/mL Zeocin. Clones were analyzed for expression of progesterone receptor isoform B protein in the presence and absence of 10 ng/mL doxycycline (Sigma Cat #D9891), and a single doxycycline-inducible clone (hereinafter “SC”) was selected for use in downstream assays.
(§4) The SC cells were seeded on poly-D-lysine coated, black clear-bottom 384-well plates at 2500/well, in 25 μL Phenol Red Free Dulbecco's Modified Eagle Medium (DMEM) supplemented with 10% w/w charcoal-dextran treated fetal bovine serum (FBS) and 1% w/w pen-strep, with or without 10 ng/mL doxycycline. Pen-Strep is a commercially available mixture of penicillin G and streptomycin, which is used in mammalian cell culture media to prevent bacterial contamination. Phenol Red Free Dulbecco's Modified Eagle Medium (DMEM) supplemented with 10% w/w charcoal-dextran treated fetal bovine serum (FBS) and 1% w/w pen-strep, with or without 10 ng/mL doxycycline is herein referred to as Treatment Medium. Following seeding of cells in the plates, the plates were spun at 300×g for 30 seconds, then equilibrated to room temperature for 30 minutes, and then deposited in a humidified tissue culture incubator maintained at 37° C. with 5% CO2.
(§5) At 24 hours after seeding of the cells, dilutions of test compound were prepared in DMSO and dissolved in Treatment Medium, to achieve a final DMSO concentration of 0.5% w/w, thereby providing the Test Compound Solution. A 25 μL aliquot of the Test Compound Solution was added to cells in the well plates. An equal volume of a solution containing DMSO and Treatment Medium was used as a negative control. Following treatment of cells with Test Compound Solution or said equal volume of a solution containing DMSO and Treatment Medium, the plates were spun at 300×g for 30 seconds, and then left in an incubator for 72 hours.
(§6) At the end of the treatment duration, cell viability was quantified with CellTiter-Glo 2.0 reagent (Promega Cat #G9243). For this purpose, plates were equilibrated to room temperature for 30 minutes, and then 25 μL of CellTiter-Glo 2.0 reagent was added to cells in the plate wells. Plates were then agitated on a shaker for two minutes at 500 rpm and subsequently incubated at room temperature for 10 minutes. Following incubation, the plates were spun at 3000×g for 30 seconds, then sealed with an optical adhesive cover, and luminescence readings were measured with an EnVision Plate Reader (Perkin Elmer).
(§7) Data was normalized using zero luminescence for baseline. A four-parameter non-linear regression curve fit was applied to dose-response data in GraphPad Prism data analysis software to determine the half-maximal growth inhibitory concentration (GI50) for each test compound.

The subject of the next experiment is T47D cells. The experiment is described as follows: Cellular growth inhibition assay for T47D cells (CellTiter-Glo, 72 hours). Type of experiment: cell-based, human. To be noted: Homo sapiens, T47D, 72 h, 72 hours treatment. The method, boiled down: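 Growth inhibition as GI50, fitted with four parameters to CellTiter-Glo luminescence after 72 h of compound exposure (0.5% DMSO). Cells were T47D, grown in insulin-supplemented (0.2 units/mL) DMEM with 10% FBS and treated one day post-seeding.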

A short description of experiment [4]: Cellular growth inhibition assay, T-Rex 293 SC cells with doxycycline (CellTiter-Glo, 72 hours). Type of experiment: cell-based. To be noted: T-Rex 293 SC cells with doxycycline (increased progesterone receptor isoform B). As to the method:
as §2, §3, §4, §5, §6, §7

Structures are written as SMILES. pKd: −log10 of the molar value.

With `Cc1sc2c(c1C)C(c1ccc(Cl)cc1)=N[C@@H](CC(=O)NCCOCCOCCOCCOCCOC1CCN(c3ccc(C(=O)N[C@H]4CC[C@H](Oc5ccc(C#N)c(Cl)c5)CC4)nn3)CC1)c1nnc(C)n1-2` [I-3, N-[4-(3-chloro-4-cyano-phenoxy)cyclohexyl]-6-[4-[2-[2-[2-[2-[2-[[2-[7-(4-chlorophenyl)-4,5,13-trimethyl-3-thia-1,8,11,12-tetrazatricyclo[8.3.0.0^2,6]trideca-2(6),4,7,10,12-pentaen-9-yl]acetyl]amino]ethoxy]ethoxy]ethoxy]ethoxy]ethoxy]-1-piperidyl]pyridazine-3-carboxamide], the pKd on BRD4-BD1 was above 7.30. The 50% growth inhibitory concentration (GI50) in experiment [1] was below 500 nM; with VCaP cells, below 500 nM; in experiment [2], 1500 to 3000 nM.
On androgen receptor, `CCNC(=O)C[C@@H]1N=C(c2ccc(OCCOCCOCCOC3CCN(c4ccc(C(=O)N[C@H]5CC[C@H](Oc6ccc(C#N)c(Cl)c6)CC5)nn4)CC3)cc2)c2c(sc(C)c2C)-n2c(C)nnc21` [I-9] had a negative logarithm of the Kd (pKd) above 7.30. Moreover, the GI50 is below 500 nM in experiment [1], below 500 nM in the experiment on VCaP cells and 500 to 1500 nM in experiment [2].
Compound `CCNC(=O)C[C@@H]1N=C(c2ccc(N3CCC(N(C)C4CN(c5ccc(C(=O)N[C@H]6CC[C@H](Oc7ccc(C#N)c(Cl)c7)CC6)nn5)C4)CC3)cc2)c2c(sc(C)c2C)-n2c(C)nnc21` [I-63] gave a negative logarithm of the Kd (pKd) at androgen receptor above 7.30. For the same compound, the GI50 is below 500 nM in experiment [1], below 500 nM in the experiment with VCaP cells and 500 to 1500 nM in experiment [2].
`CCNC(=O)C[C@@H]1N=C(c2ccc(N3CCC(CN4CC(N(C)c5ccc(C(=O)N[C@H]6CC[C@H](Oc7ccc(C#N)c(Cl)c7)CC6)nn5)C4)CC3)cc2)c2c(sc(C)c2C)-n2c(C)nnc21` [I-68]: the pKd on androgen receptor is 6.30 to 7.30. Moreover, the concentration for 50% growth inhibition (GI50) in experiment [1] was above 3000 nM; in the experiment with VCaP cells, 500 to 1500 nM; in experiment [2], above 3000 nM.
Regarding `Cc1sc2c(c1C)C(c1ccc(C3C[C@H]3CC3CCCN(c4ccc(C(=O)N[C@H]5CC[C@H](Oc6ccc(C#N)c(Cl)c6)CC5)nn4)C3)cc1)=N[C@@H](Cc1ncco1)c1nnc(C)n1-2` (stereo partly shown) [I-204], the concentration for 50% growth inhibition (GI50) (in experiment [3]; in experiment [1]; in the experiment with VCaP cells; in the experiment on T47D cells; in experiment [4]; in experiment [2]) was below 500 nM in each case.
As to `Cc1sc2c(c1C)C(c1ccc(C3CC3CC3CCCN(c4ccc(C(=O)N[C@H]5CC[C@H](Oc6ccc(C#N)c(Cl)c6)CC5)nn4)C3)cc1)=N[C@@H](Cc1ncco1)c1nnc(C)n1-2` (stereo partly shown) [I-205], the 50% growth inhibitory concentration (GI50) (in experiment [3]; in experiment [1]; with VCaP cells; with T47D cells; in experiment [4]; in experiment [2]) was below 500 nM in each case.
As for `Cc1sc2c(c1C)C(c1ccc(CCC3CC4(CCCN(c5ccc(C(=O)N[C@H]6CC[C@H](Oc7ccc(C#N)c(Cl)c7)CC6)nn5)C4)C3)cc1)=N[C@@H](Cc1ncco1)c1nnc(C)n1-2` (stereo partly shown) [I-208], the concentration for 50% growth inhibition (GI50) (in experiment [3]; in experiment [1]; with VCaP cells; with T47D cells; in experiment [4]; in experiment [2]) was below 500 nM in each case.
